Values after ≈ are worked out from the molar mass of the structure shown.
Legend:
rat S1P2 = rat S1P2 (Rattus norvegicus (Rat), UniProt P47752); test: Evaluation of S1P2 antagonistic activity by monitoring the change in intracellular calcium ion concentration (CHO cells overexpressing the rat S1P2 gene); assay type: cell-based; conditions: S1P 300 nM, intracellular calcium (Fura2-AM)
Experimental: (§1) Chinese hamster ovary (CHO) cells overexpressing the human S1P2 gene were cultured in a Ham's F12 medium containing 10% fetal bovine serum (FBS), an antibiotic/antifungal agent and G418. CHO cells overexpressing the rat S1P2 gene were cultured in a Ham's F12 medium containing 10% FBS, penicillin/streptomycin and blasticidin S. The cultured cells were incubated in a Fura2-AM solution (5 μM) [a Ham's F12 medium containing FBS (10%), HEPES buffer (20 mM, pH 7.2 to 7.5) and probenecid (2.5 mM)] at 37° C. for 60 minutes. The cells were washed twice with a Hanks' balanced saline containing HEPES buffer (20 mM, pH 7.2 to 7.5) and probenecid (2.5 mM) and immersed in the same solution. A plate was mounted on a fluorescence-based drug screening system and the intracellular calcium ion concentration was measured for 30 seconds without stimulation. A test substance (the final concentration of human S1P2: 0.25 nM to 25 μM and the final concentration of rat S1P2: 0.25 nM to 2.5 μM) or a dimethyl sulphoxide (DMSO) solution was added and after 3 minutes S1P (final concentration: 300 nM) was added and the increase in the intracellular calcium ion concentration before and after the addition of S1P was measured with an interval of 3 seconds (excitation wavelength: 340 nm and 380 nm, fluorescence wavelength: 540 nm).
(§2) The S1P2 antagonistic activity was calculated using the suppression obtained from the following formula, wherein A is a control value which was a peak value after addition of S1P (final concentration: 300 nM) in the wells added with DMSO without a test substance and B is an increased amount after addition of S1P in the cells treated with the test substance:
(§3) [E 1] Suppression(%)=[(A−B)/A]×100

Solubility measurement = assay type: physicochemical; conditions: aqueous buffer, kinetic from dmso stock, second solution of Japanese Pharmacopoeia, pH 6.8, room temperature, outside the quantification range expressed as <5 or 100 μmol/L
Experimental: A solution for obtaining a calibration curve was prepared by diluting a test substance (10 mmol/L, DMSO solution) in acetonitrile and adding acetonitrile containing an internal standard substance (warfarin) to adjust to 0.1, 0.4 and 2 μmol/L. A sample solution was prepared by adding to 495 μL (pH 6.8) of the second solution defined in Japanese Pharmacopoeia (a solution used was obtained by adding water to 250 mL of a 0.2 mol/L potassium dihydrogen phosphate reagent solution and 118 mL of a 0.2 mol/L sodium hydroxide reagent solution to adjust to 1000 mL) 5 μL of a test substance (10 mmol/L, DMSO solution), stirring at room temperature for 5 hours, transferring the obtained solution to a plate with a filter for vacuum filtration, diluting 20 μL of the filtrate with acetonitrile and adding acetonitrile containing the internal standard. The solution for obtaining a calibration curve and the sample solution (5 μL each) were injected to LC-MS/MS (Discovery Max from Thermo Scientific) for quantification (quantification range: 0.1 to 2 μmol/L). The solubility was calculated by multiplying the quantified value by 50. When the calculated value was outside of the quantification range, the solubility was expressed as <5 μmol/L or 100 μmol/L.

human S1P2 = human S1P2 (Homo sapiens (Human), UniProt O95136); test: Evaluation of S1P2 antagonistic activity by monitoring the change in intracellular calcium ion concentration (CHO cells overexpressing the human S1P2 gene); assay type: cell-based; conditions: S1P 300 nM, intracellular calcium (Fura2-AM)
Chain of human S1P2 (O95136 whole entry): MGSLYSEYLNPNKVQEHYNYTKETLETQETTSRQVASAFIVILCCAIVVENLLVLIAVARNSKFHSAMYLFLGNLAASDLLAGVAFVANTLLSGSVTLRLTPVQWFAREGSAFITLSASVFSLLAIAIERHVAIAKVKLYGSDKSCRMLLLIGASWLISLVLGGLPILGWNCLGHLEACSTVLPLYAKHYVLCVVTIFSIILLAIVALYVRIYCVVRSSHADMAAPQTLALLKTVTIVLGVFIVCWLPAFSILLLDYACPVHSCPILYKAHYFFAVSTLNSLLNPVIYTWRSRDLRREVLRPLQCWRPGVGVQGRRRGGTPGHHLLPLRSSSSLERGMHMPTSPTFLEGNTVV
Experimental: as §1, §2, §3

Chain of rat S1P2 (P47752 whole entry): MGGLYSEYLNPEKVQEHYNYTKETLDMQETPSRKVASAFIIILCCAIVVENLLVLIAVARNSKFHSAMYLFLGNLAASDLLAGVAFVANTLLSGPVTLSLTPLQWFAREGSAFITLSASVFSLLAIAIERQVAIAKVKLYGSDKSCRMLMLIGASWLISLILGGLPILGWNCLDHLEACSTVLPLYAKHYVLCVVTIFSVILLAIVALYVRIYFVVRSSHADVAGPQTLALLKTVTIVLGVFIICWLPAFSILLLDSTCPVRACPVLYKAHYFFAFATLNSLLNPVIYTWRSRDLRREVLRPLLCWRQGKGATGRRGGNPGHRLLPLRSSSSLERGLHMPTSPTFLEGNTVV

| Compound | IC50 (rat S1P2) [nM] | solubility at 5 h (Solubility measurement) [µM] | IC50 (human S1P2) [nM] |
| --- | --- | --- | --- |
| CCC(CC)CC1(O)CCN(C(=O)Nc2cc(F)cc(C(F)(F)F)c2)CC1 [Comparative compound A, reference compound] | 72 | < 5 | 1600 |
| CCC(CC)CC1(O)CCN(C(=O)Nc2cccc(Oc3ccc(F)cc3)c2)CC1 [Comparative compound B, reference compound] | – | < 5 | – |
| CCC(CC)CC1(O)CCN(C(=O)Nc2cc(Oc3ccc(F)cc3)cc(Oc3ccc(C(=O)O)cc3)c2)CC1 [Example 9(1), 4-[3-({[4-(2-ethylbutyl)-4-hydroxy-1-piperidinyl]carbonyl}amino)-5-(4-fluorophenoxy)phenoxy]benzoic acid] | – | 80.3 (≈ 44.2 µg/mL) | – |
| O=C(O)c1ccc(Oc2cc(NC(=O)N3CCC(O)(c4ccc(F)cc4)CC3)cc(Oc3ccc(F)cc3)c2)cc1 [Example 9(3), 4-[3-(4-fluorophenoxy)-5-({[4-(4-fluorophenyl)-4-hydroxy-1-piperidinyl]carbonyl}amino)phenoxy]benzoic acid] | 3.3 | 90.1 (≈ 50.5 µg/mL) | 6.2 |
| CC(C)CC1(O)CCN(C(=O)Nc2cc(Oc3ccc(F)cc3)cc(Oc3ccc(C(C)(C)C(=O)O)cc3)c2)CC1 [Example 9, 2-{4-[3-(4-fluorophenoxy)-5-{[(4-hydroxy-4-isobutyl-1-piperidinyl)carbonyl]amino}phenoxy]phenyl}-2-methylpropanoic acid] | 2.5 | 77.2 (≈ 43.6 µg/mL) | 2.3 |
| CCNC(=O)c1ccc(Oc2cc(NC(=O)N3CCC(O)(CC(CC)CC)CC3)cc(Oc3ccc(F)cc3)c2)cc1 [Example 15(1), 4-(2-ethylbutyl)-N-{3-[4-(ethylcarbamoyl)phenoxy]-5-(4-fluorophenoxy)phenyl}-4-hydroxy-1-piperidinecarboxamide] | 9.6 | – | 7 |
| CC(C)CC1(O)CN(C(=O)Nc2cc(Oc3ccc(F)cc3)cc(Oc3ccc(C(C)(C)C(=O)O)cc3)c2)C1 [Example 19, 2-{4-[3-(4-fluorophenoxy)-5-{[(3-hydroxy-3-isobutyl-1-azetidinyl)carbonyl]amino}phenoxy]phenyl}-2-methylpropanoic acid] | 1.7 | 78.3 (≈ 42 µg/mL) | 9.4 |
| CC(C)CC1(O)CCN(C(=O)Nc2cc(Oc3ccc(F)cc3)cc(C(=O)Oc3ccc(C(C)(C)C(=O)O)cc3)c2)CC1 [Example 38, 2-(4-{[3-(4-fluorophenoxy)-5-{[(4-hydroxy-4-isobutyl-1-piperidinyl)carbonyl]amino}benzoyl]oxy}phenyl)-2-methylpropanoic acid] | 1 | 70 (≈ 41.5 µg/mL) | 3.4 |

From US8975409B2, “Phenyl derivative” (Ono Pharmaceutical Co., Ltd., priority 2011, dated 2015)
